Laboratory results taken from US20220000964A1, “Compositions and Methods for Regulating Homeostasis of Chondrocytes, Extracellular Matrix, Articular Cartilage, and Phenotype of Arthritis” (Unigen, Inc., priority 2020, published 2022).
Read-outs that look alike come from different tables or passages of the source.

How the values were obtained:
Assay type in all cases: in vivo, rat
MIA-induced OA rats [1] = experiment: MIA-induced OA rats, pain sensitivity (paw withdrawal threshold, Randall-Salitto); conditions: 10 mg/kg oral; for inhibition at 10 mg/kg: Rattus norvegicus, po, read-out: Knee compression sensitivity, percent inhibition against vehicle treated MIA rats
Description: The MIA-induced OA disease model in rats is a standardized model most frequently used to mimic human OA (Lee et al., 2014). The model involves inoculation of MIA into a femorotibial joint pocket that induces pain responses in the ipsilateral limb accompanied by progressive cartilage degradation. Intra-articular injection of MIA disrupts chondrocyte glycolysis by inhibiting […] and results in chondrocyte death, neovascularization, subchondral bone necrosis and collapse, as well as inflammation (Guzman et al., 2003). These phenotypic characteristics make the model very attractive to evaluate compounds for their anti-inflammatory, analgesic and/or potential disease-modifying activities as it shares similar disease pathology to the human OA. As a result, we selected this validated in vivo model to investigate the effect of AMK in mitigating pain sensitivity, regulating the phenotype of joint tissue and maintaining articular structural integrity after being administered orally for 6 weeks.
(§1) Treatment started a week before MIA injection. Animals were randomized into five groups of 10 rats per group as G1=normal, G2=vehicle (0.5% CMC-Na solution), G3=Diclofenac (10 mg/kg, Lot #W08B043, Ward Hill, Mass.), G4=AMK (100 mg/kg) and G5=AMK (300 mg/kg), were orally gavaged with respective treatment. On the induction day, isoflurane (Lot #B66H15A, Piramal Enterprise Ltd. Andhra Pradesh, India) anesthetized rats were injected with 0.8 mg of MIA (Lot #A0352046, Acros Organics, New Jersey, USA) in 50 μL saline solution into the intra-articular pocket of left femorotibial (knee) joint using 26 G needle an hour after treatment. Normal control rats were injected with an equal volume of saline. Paw withdrawal thresholds as a result of constant pressure applied to the affected joint as a measure of pain sensitivity were taken once a week using Randall-Salitto Anesthesiometer (IITC, USA) and treatment lasted for 6 weeks. Body weights were measured once a week to calculate the respective weekly dosage of each group. Urine was collected at the end of study using metabolic cages. Blood samples were collected to isolate serum for biomarker analysis. At necropsy, animals were asphyxiated with CO2 and the femorotibial joint was carefully dissected out, fixed in 10% buffered formalin and sent to Nationwide Histology (Veradale, Wash., USA) for further histopathology analysis. The fixed specimens were then decalcified with Calci-Clear Rapid for 1 and a half days and embedded in paraffin. Standardized […] serial sections were obtained at the medial and lateral mid-condylar level in the sagittal plane and were stained with hematoxylin and eosin (HE) and Safranin O-fast green to enable evaluation of proteoglycan content. A modified Mankin system (Mankin et al., 1981) was used to score structural and cellular alterations of articular components as indications of disease progression and/or treatment efficacy. The histological analysis was conducted by a certified Pathologist at Nationwide Histology.

IL-6 = experiment: MIA-induced OA rats, serum IL-6; conditions: 10 mg/kg
Experimental: Treatment started a week before MIA injection. […] On the induction day, isoflurane (Lot #B66H15A, Piramal Enterprise Ltd. Andhra Pradesh, India) anesthetized rats were injected with 0.8 mg of MIA (Lot #A0352046, Acros Organics, New Jersey, USA) in 50 μL saline solution into the intra-articular pocket of left femorotibial (knee) joint using 26 G needle an hour after treatment. Normal control rats were injected with an equal volume of saline. […] Body weights were measured once a week to calculate the respective weekly dosage of each group. […] The fixed specimens were then decalcified with Calci-Clear Rapid for 1 and a half days and embedded in paraffin. […] The histological analysis was conducted by a certified Pathologist at Nationwide Histology.

MIA-induced OA rats [2] = experiment: MIA-induced OA rats, histopathology (modified Mankin); conditions: 10 mg/kg
Experimental: as §1

Sprague Dawley rats = experiment: Hot plate test, topical application, paw withdrawal latency; conditions: dose (%): Ibuprofen 5, Capsaicin 0.5, Diclofenac 1, others 5
Description: Repeated application of anti-inflammatory compounds or extracts topically at the site of thermal contact (noxious stimulus) may cause desensitization of the peripheral afferent pain receptors to produce a delay in response time. A longer change in reaction time could be interpreted as an anti-nociceptive effect of the applied compound. To evaluate whether prepared plant extracts and compositions could provide anti-nociceptive activity, rats received orally-active anti-inflammatory extracts formulated in 2% Aloe vera gel at 5% concentration topically on their hind paws. The applied preparations on each paw were massaged at least 60 times in a circular motion into the skin until the applied content appeared visually absorbed. The procedure was repeated 3 times, every 30 minutes, before placing the animals on a preheated hot plate set to 53° C. The paw withdrawal latency was calculated as the time elapsed from the initial placement of the rat onto the hotplate to the withdrawal (or licking or shaking) of the hind paw in response to the thermal stimulus. Animals were immediately removed when this response was observed.
The anti-pain activity of medicinal plant extracts was tested on a hot plate set at 53° C. Test materials at 5% concentrations were topically applied at 20 μl/paw to the hind paws of both right and left paws of Sprague Dawley rats (n=10 per group). Applications of these extracts were carried out every 30 minutes for a total of 90 minutes. Within these 90 minutes, rats received a total of 60 μl/paw of the test article per rat. At 5% concentration, each rat received 3 mg/paw of the test articles. Due to the solubility characteristics of the compounds, two types of vehicles, V1=Dimethyl sulfoxide (DMSO)+propylene glycol (PG)+Aloe (2%), and V2=DMSO+OIL+PG, were used. Percent changes and P-values for statistical significance were determined using respective vehicles for each test material. The vehicle used for each material has been indicated in the parenthesis next to the test material. […] These increases in anti-pain activity were statistically significant. […] This percent change was statistically significant when compared to its respective vehicle.

O=C(O)Cc1ccccc1Nc1c(Cl)cccc1Cl [Diclofenac]
inhibition at 10 mg/kg (MIA-induced OA rats [1]; Wk-0): 0.3%
inhibition at 10 mg/kg (MIA-induced OA rats [1]; Wk-1): 19.7%
inhibition at 10 mg/kg (MIA-induced OA rats [1]; Wk-2): 24.1%
inhibition at 10 mg/kg (MIA-induced OA rats [1]; Wk-3): 28.3%
inhibition at 10 mg/kg (MIA-induced OA rats [1]; Wk-4): 30.8%
inhibition at 10 mg/kg (MIA-induced OA rats [1]; wk-5): 31.1%
Knee compression sensitivity (Mean ± SD) (MIA-induced OA rats [1]; Wk-0): 243.1 ± 2.4
Knee compression sensitivity (Mean ± SD) (MIA-induced OA rats [1]; Wk-1): 190.9 ± 2.3
Knee compression sensitivity (Mean ± SD) (MIA-induced OA rats [1]; Wk-2): 190.5 ± 2.6
Knee compression sensitivity (Mean ± SD) (MIA-induced OA rats [1]; Wk-3): 183.8 ± 2.3
Knee compression sensitivity (Mean ± SD) (MIA-induced OA rats [1]; Wk-4): 183.3 ± 1.7
Knee compression sensitivity (Mean ± SD) (MIA-induced OA rats [1]; wk-5): 182.0 ± 1.1
IL-6 (IL-6): 114.2 ± 5.5 pg/mL
inhibition in catabolic inflammation and infiltration of inflammatory cells (MIA-induced OA rats [2]; MIA rats): 42.8%
reduction in matrix GAG loss (MIA-induced OA rats [2]; MIA rats): 34.6%
reduction of overall structural abnormalities (MIA-induced OA rats [2]; MIA rats): 41.1%
Bone Erosion (Mean ± SE) (MIA-induced OA rats [2]; modified Mankin score): 3.08 ± 0.50
Cartilage destruction (Mean ± SE) (MIA-induced OA rats [2]; modified Mankin score): 4.00 ± 0.76
GAG Loss (Mean ± SE) (MIA-induced OA rats [2]; modified Mankin score): 3.08 ± 0.57
Inflammation (Mean ± SE) (MIA-induced OA rats [2]; modified Mankin score): 1.31 ± 0.22
Bone Erosion, reduction (value in parenthesis) (MIA-induced OA rats [2]; vs MIA+ vehicle): (40.8) %
Cartilage destruction, reduction (value in parenthesis) (MIA-induced OA rats [2]; vs MIA+ vehicle): (41.10%
GAG Loss, reduction (value in parenthesis) (MIA-induced OA rats [2]; vs MIA+ vehicle): (34.6) %
Inflammation, reduction (value in parenthesis) (MIA-induced OA rats [2]; vs MIA+ vehicle): (42.8) %
Paw withdrawal threshold (latency) Mean ± SD (Sprague Dawley rats; hot plate 53° C., topical, vehicle V1 (DMSO+PG+Aloe 2%), in s (unit assumed)): 6.93 ± 1.50
% Change (Sprague Dawley rats; vs vehicle V1, negative = increased paw withdrawal latency): 2.8%
